Measured values reported in patent US20080221095A1, “Metalloprotease inhibitors containing a heterocyclic moiety” (priority 2007, published 2008).

Experiments:
Format in all cases: biochemical
[1] = biological target: T1, catalytic domain of MMP-13 enzyme (Homo sapiens, UniProt P45452); test: Assay for determining MMP-13 inhibition (fluorescent substrate); settings: read-out: MMP-13 Activity (IC50 MMP-13), Group
T1 construct: 50 nM stock solution of catalytic domain of MMP-13 enzyme; purchased Invitek (Berlin) 30100812
Procedure: Assay for Determining MMP-13 Inhibition
The typical assay for MMP-13 activity is carried out in assay buffer comprised of 50 mM Tris, pH 7.5, 150 mM NaCl, 5 mM CaCl2 and 0.05% Brij-35. Different concentrations of tested compounds are prepared in assay buffer in 50 μL aliquots. 10 μL of a 50 nM stock solution of catalytic domain of MMP-13 enzyme (produced by Alantos or commercially available from Invitek (Berlin), Cat.#30100812) is added to the compound solution. The mixture of enzyme and compound in assay buffer is thoroughly mixed and incubated for 10 min at room temperature. Upon the completion of incubation, the assay is started by addition of 40 μL of a 12.5 μM stock solution of MMP-13 fluorescent substrate (Calbiochem, Cat. No. 444235). The time-dependent increase in fluorescence is measured at the 320 nm excitation and 390 nm emission by automatic plate multireader. The IC50 values are calculated from the initial reaction rates.

[2] = biological target: T2, activated MMP-8 enzyme (Homo sapiens, UniProt P22894); test: Assay for determining MMP-8 inhibition (fluorescent substrate); settings: read-out: MMP-8 Activity (IC50 MMP-8), Group
T2 construct: purchased Calbiochem 444229
T2 sequence (P22894 101-467): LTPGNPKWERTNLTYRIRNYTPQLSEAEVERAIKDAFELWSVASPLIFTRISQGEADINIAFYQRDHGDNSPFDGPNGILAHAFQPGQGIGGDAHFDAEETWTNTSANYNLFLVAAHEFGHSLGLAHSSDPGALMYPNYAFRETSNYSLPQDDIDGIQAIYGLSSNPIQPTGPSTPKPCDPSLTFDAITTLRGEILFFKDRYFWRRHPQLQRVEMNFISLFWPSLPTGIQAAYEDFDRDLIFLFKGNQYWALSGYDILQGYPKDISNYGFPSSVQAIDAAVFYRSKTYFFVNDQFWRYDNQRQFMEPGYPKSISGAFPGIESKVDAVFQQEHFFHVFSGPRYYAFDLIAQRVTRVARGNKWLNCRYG
Procedure: Assay for Determining MMP-8 Inhibition
The typical assay for MMP-8 activity is carried out in assay buffer comprised of 50 mM Tris, pH 7.5, 150 mM NaCl, 5 mM CaCl2 and 0.05% Brij-35. Different concentrations of tested compounds are prepared in assay buffer in 50 μL aliquots. 10 μL of a 50 nM stock solution of activated MMP-8 enzyme (Calbiochem, Cat. No. 444229) is added to the compound solution. The mixture of enzyme and compound in assay buffer is thoroughly mixed and incubated for 10 min at 37° C. Upon the completion of incubation, the assay is started by addition of 40 μL of a 10 μM stock solution of OmniMMP fluorescent substrate (Biomol, Cat. No. P-126). The time-dependent increase in fluorescence is measured at the 320 nm excitation and 390 nm emission by an automatic plate multireader at 37° C. The IC50 values are calculated from the initial reaction rates.

[3] = biological target: T3, catalytic domain of MMP-3 enzyme (Homo sapiens, UniProt P08254); test: Assay for determining MMP-3 inhibition (fluorescent substrate); settings: read-out: MMP-3 Activity (IC50 MMP-3), Group
T3 construct: 100 nM stock solution of the catalytic domain of MMP-3 enzyme (Biomol, Cat. No. SE-1 09); purchased Biomol SE-1 09
T3 sequence (P08254 100-272 limits assumed): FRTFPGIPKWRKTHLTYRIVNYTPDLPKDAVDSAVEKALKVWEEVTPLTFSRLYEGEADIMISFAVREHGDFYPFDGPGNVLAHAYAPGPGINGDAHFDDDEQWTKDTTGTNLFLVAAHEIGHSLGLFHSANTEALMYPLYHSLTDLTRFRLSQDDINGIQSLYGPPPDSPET
Procedure: Assay for Determining MMP-3 Inhibition
The typical assay for MMP-3 activity is carried out in assay buffer comprised of 50 mM MES, pH 6.0, 10 mM CaCl2 and 0.05% Brij-35. Different concentrations of tested compounds are prepared in assay buffer in 50 μL aliquots. 10 μL of a 100 nM stock solution of the catalytic domain of MMP-3 enzyme (Biomol, Cat. No. SE-1 09) is added to the compound solution. The mixture of enzyme and compound in assay buffer is thoroughly mixed and incubated for 10 min at room temperature. Upon the completion of incubation, the assay is started by addition of 40 μL of a 12.5 μM stock solution of NFF-3 fluorescent substrate (Calbiochem, Cat. No. 480455). The time-dependent increase in fluorescence is measured at the 330 nm excitation and 390 nm emission by an automatic plate multireader. The IC50 values are calculated from the initial reaction rates.

SMILES | IC50 [1] [nM] | IC50 [2] [nM] | IC50 [3] [nM]
O=C1COc2ccc(CNC(=O)c3nc(-c4ccccc4)cc(=O)[nH]3)cc2N1 [1/1] | 100 to 20000 | – | –
O=C(NCc1ccc2c(c1)-n1c(noc1=O)CO2)c1nc2ccccc2c(=O)[nH]1 [1/30] | 100 to 20000 | – | –
Cc1ccc2nc(NC(=O)Cc3ccc4c(c3)NC(=O)CO4)[nH]c(=O)c2c1 [1/34] | 100 to 20000 | – | –
CN1C(=O)COc2ccc(CNC(=O)c3nc4ccccc4c(=O)[nH]3)cc21 [1/8] | 100 to 20000 | 250 to 20000 | –
O=C1COc2ncc(CNC(=O)c3nc4ccccc4c(=O)[nH]3)cc2N1 [1/13] | 100 to 20000 | – | –
O=C(NCc1ccc2c(c1)NC(=S)CO2)c1nc2ccccc2c(=O)[nH]1 [1/16] | < 100 | 250 to 20000 | –
Cc1sc2nc(C(=O)NCc3ccc4c(c3F)NC(=O)CO4)[nH]c(=O)c2c1C [1/24] | 100 to 20000 | – | –
O=C1COc2ccc(CNC(=O)c3nc4ccc(F)cc4c(=O)[nH]3)c(F)c2N1 [1/23] | 100 to 20000 | – | –
O=C1COc2ccc(CNC(=O)c3nc4sc5c(c4c(=O)[nH]3)CCC3(CCN(C(=O)OCc4ccccc4)CC3)C5)cc2N1 [Example 1] | 100 to 20000 | – | –
O=C1COc2ccc(CNC(=O)c3nc4sc5c(c4c(=O)[nH]3)CCC3(C5)OCCO3)cc2N1 [1/32] | < 100 | < 250 | < 250
CC1Oc2ccc(CNC(=O)c3nc4ccccc4c(=O)[nH]3)cc2NC1=O (stereo not drawn) [1/6] | < 100 | 250 to 20000 | –
O=C1COc2c(F)cc(CNC(=O)c3nc4ccccc4c(=O)[nH]3)cc2N1 [1/10] | < 100 | – | –
Cn1c(=O)oc2ccc(CNC(=O)c3nc4ccccc4c(=O)[nH]3)cc21 [1/7] | < 100 | 250 to 20000 | –
Cc1csc2nc(C(=O)NCc3ccc4c(c3)NC(=O)CO4)[nH]c(=O)c12 [1/9] | < 100 | < 250 | < 250
Cc1sc2nc(C(=O)NCc3cc4c(cc3F)OCC(=O)N4)[nH]c(=O)c2c1C [1/26] | < 100 | 250 to 20000 | –
Cc1sc2nc(C(=O)NCc3cc(F)c4c(c3)NC(=O)CO4)[nH]c(=O)c2c1C [1/12] | < 100 | < 250 | –
Cc1sc2nc(C(=O)NCc3cnc4c(c3)NC(=O)CO4)[nH]c(=O)c2c1C [1/15] | < 100 | 250 to 20000 | –
CC(NC(=O)c1nc2ccccc2c(=O)[nH]1)c1ccc2c(c1)NC(=O)CO2 (stereo not drawn) [1/5] | 100 to 20000 | – | –
Cc1nc(C(=O)NCc2ccc3c(c2)NC(=O)CO3)[nH]c(=O)c1C [1/2] | < 100 | – | –
O=C1COc2c(F)c(F)cc(CNC(=O)c3nc4ccccc4c(=O)[nH]3)c2N1 [1/27] | 100 to 20000 | – | –

Further lines, results first:

IC50 [1] [nM] | IC50 [2] [nM] | IC50 [3] [nM] | SMILES
< 100 | < 250 | – | Cc1sc2nc(C(=O)NCc3ccc4c(c3)NC(=S)CO4)[nH]c(=O)c2c1C [1/17]
< 100 | – | – | O=C(NCc1ccc2c(c1)-n1cnnc1CO2)c1nc2ccccc2c(=O)[nH]1 [1/18]
< 100 | – | – | Cc1sc2nc(C(=O)NCc3ccc4c(c3)-n3cnnc3CO4)[nH]c(=O)c2c1C [1/19]
< 100 | – | 250 to 20000 | CC1N=C(C(=O)NCc2ccc3c(c2)NC(=O)CO3)NC(=O)C1c1ccccc1 (stereo not drawn) [1/29]
< 100 | < 250 | – | O=C1COc2ccc(CNC(=O)c3nc4c(c(=O)[nH]3)C3CCC4CC3)cc2N1 [Example 3]
< 100 | – | – | O=C1COc2c(F)cc(CNC(=O)c3nc4ccc(F)cc4c(=O)[nH]3)cc2N1 [1/11]
< 100 | < 250 | < 250 | O=C1COc2ccc(CNC(=O)c3nc4ccccc4c(=O)[nH]3)cc2N1 [1/4]
< 100 | – | – | O=C1COc2cc(F)c(CNC(=O)c3nc4ccccc4c(=O)[nH]3)cc2N1 [1/25]
< 100 | – | – | O=C1COc2ccc(CNC(=O)c3ncc(-c4ccc(F)cc4)c(=O)[nH]3)cc2N1 [1/33]
